The MIC is the lowest concentration that inhibits growth of the organism.

The subject of one test is Salmonella typhimurium. The test is described as follows: In vitro antibacterial activity (MIC), Salmonella typhimurium. The format is cell-based. To be noted: Salmonella enterica, Wellcotest sensitivity Test Agar + 7% lysed horse blood.
For a further test, the system named is Entero. aerogenes. The test is described as follows: In vitro antibacterial activity (MIC), Entero. aerogenes. The format is cell-based, Enterobacter aerogenes. The note with it: Klebsiella aerogenes; Wellcotest sensitivity Test Agar + 7% lysed horse blood.
The test system of a further test is Citro. freundii. Nature of the test: In vitro antibacterial activity (MIC), Citro. freundii. The format is cell-based. The note with it: Citrobacter freundii; Wellcotest sensitivity Test Agar + 7% lysed horse blood.
For a further test, the system named is E. coli CN314. The test is described as follows: In vitro antibacterial MIC and synergy studies against E. coli CN314. To be noted: Escherichia coli.

As to `CC(=O)OC[C@H]1O[C@@H](n2cc(C)c(=S)[nH]c2=O)C[C@@H]1N=[N+]=[N-]` [Compound 2, 3'-Azido-3'-deoxy-5'-O-acetyl-4-thiothymidine], the minimal inhibitory concentration (MIC) with Salmonella typhimurium, in the test with Entero. aerogenes and in the test with Citro. freundii was 10 µg/mL in each case.

As to `Cc1cn([C@H]2C[C@H](N=[N+]=[N-])[C@@H](CO)O2)c(OCc2ccccc2)nc1=O` [Compound 6, 1-(3'-Azido-2',3'-dideoxy-β-D-erythro-pentofuranosyl)-2-(benzyloxo)-5-methyl-4-(1H)-pyrimidinone], the MIC in the test with Salmonella typhimurium, with Entero. aerogenes and in the test on Citro. freundii was 10 µg/mL in each case.

Take `CC[C@H]1OC(=O)[C@H](C)[C@@H](O[C@H]2C[C@@](C)(OC)[C@@H](O)[C@H](C)O2)[C@H](C)[C@@H](O[C@@H]2O[C@H](C)C[C@H](N(C)C)[C@H]2O)[C@](C)(O)C[C@@H](C)C(=O)[C@H](C)[C@@H](O)[C@]1(C)O` [Erythromycin]: in the test on E. coli CN314, the MIC came out at 25 µg/mL.

For the compound `CO[C@H]1/C=C/O[C@@]2(C)Oc3c(C)c(O)c4c(O)c(c(/C=N/N5CCN(C)CC5)c(O)c4c3C2=O)NC(=O)/C(C)=C\C=C\[C@H](C)[C@H](O)[C@@H](C)[C@@H](O)[C@@H](C)[C@H](OC(C)=O)[C@@H]1C` [Rifampicin], in the test on E. coli CN314, the MIC is 6.2 µg/mL.

For `Cc1cn([C@H]2C[C@H](N=[N+]=[N-])[C@@H](CO)O2)c(=S)[nH]c1=O` [Compound 3, 3'-Azido-3'-deoxy-2-deoxy-2-thiothymidine], the figures for the MIC with Salmonella typhimurium, in the test on Entero. aerogenes and in the test with Citro. freundii were 10 µg/mL, over 100 µg/mL and 10 µg/mL, respectively.

For the compound `O=C(N[C@H](CO)[C@H](O)c1ccc([N+](=O)[O-])cc1)C(Cl)Cl` [Chloramphenicol], the MIC in the test with E. coli CN314 is 3.1 µg/mL.

Regarding `CC(=O)OC[C@H]1O[C@@H](n2cc(C)c(-n3cncn3)nc2=O)C[C@@H]1N=[N+]=[N-]` [Compound 5, 1-(5'-O-Acetyl-3'-azido-2',3'-deoxy-β-D-erythro-pentofuranosyl)-5-methyl-4-(1,2,4-triazol-1-yl)-2(1H)-pyrimidinone], the minimum inhibitory concentration (MIC) was over 100 µg/mL with Salmonella typhimurium, 100 µg/mL in the test with Entero. aerogenes and 10 µg/mL in the test on Citro. freundii.

As for `COc1nc(=O)c(C)cn1[C@H]1C[C@H](N=[N+]=[N-])[C@@H](CO)O1` [Compound 7, 3'-Azido-3'-deoxy-2-methoxythymidine], the MIC with Salmonella typhimurium, in the test on Entero. aerogenes and in the test on Citro. freundii was 10 µg/mL each time.

Take `CC(=O)OC[C@H]1O[C@@H](n2cc(C)c(=O)n(C(=O)c3ccccc3)c2=O)C[C@@H]1N=[N+]=[N-]` [Compound 4, 5'-Acetyl-3'-azido-3-benzoyl-3'-deoxythymidine]: the MIC was under 0.1 µg/mL with Salmonella typhimurium, over 100 µg/mL in the test with Entero. aerogenes and under 0.1 µg/mL in the test with Citro. freundii.

With `CCC[C@@H]1C[C@@H](C(=O)N[C@@H]([C@H]2O[C@H](SC)[C@H](O)[C@@H](O)[C@H]2O)[C@H](C)Cl)N(C)C1` [Clindamycin], the MIC in the test with E. coli CN314 was 100 µg/mL.

On to `NC[C@H]1O[C@H](O[C@H]2[C@H](O)[C@@H](O[C@H]3O[C@H](CO)[C@@H](O)[C@H](N)[C@H]3O)[C@H](N)C[C@@H]2N)[C@H](N)C[C@@H]1O` [Tobramycin], for which the minimum inhibitory concentration (MIC) in the test with E. coli CN314 is 0.4 µg/mL.

Turning to `Cc1cc(C)nc(NS(=O)(=O)c2ccc(N)cc2)n1` [Sulphadimidine], the MIC in the test with E. coli CN314 was found to be 32 µg/mL.

`COc1cc(Cc2cnc(N)nc2N)cc(OC)c1OC` [Trimethoprim, 2,4-diamino-5-(3',4',5'-trimethoxybenzyl) pyrimidine, reference compound]: the minimal inhibitory concentration (MIC) in the test on Salmonella typhimurium was determined as 0.5 µg/mL; in the test on Entero. aerogenes, 0.5 µg/mL; in the test on Citro. freundii, 0.5 µg/mL; in the test with E. coli CN314, 0.125 µg/mL.

Take `CC(=O)O[C@H]1C[C@@]2(C)[C@@H](C[C@@H](O)[C@H]3[C@@]4(C)CC[C@@H](O)[C@@H](C)[C@@H]4CC[C@@]32C)/C1=C(\CCC=C(C)C)C(=O)O` [Fusidic acid]: the minimum inhibitory concentration (MIC) in the test with E. coli CN314 was 1000 µg/mL.

Turning to `Cc1cn([C@H]2C[C@H](N=[N+]=[N-])[C@@H](CO)O2)c(=O)[nH]c1=S` [Compound 1, 3'-Azido-3'-deoxy-4-thiothymidine], the MIC with Salmonella typhimurium was under 0.1 µg/mL; in the test on Entero. aerogenes, under 0.1 µg/mL; in the test with Citro. freundii, 10 µg/mL.

Values taken from US5064946A, “Therapeutic nucleosides” (priority 1987, dated 1991).
